From BindingDB's records for doi:10.1021/jm0492958 (Abbott Laboratories, 2005)

Legend:
[1] = biological target: Transient receptor potential cation channel subfamily V member 1 (Rattus norvegicus, UniProt O35433); test: Ca2+ Influx Functional Assay for the Determination of in Vitro Activity.; details: pH 7.4; 22 °C
Procedure: (§1) The functional antagonist activity of compounds at the TRPV1 receptor was determined with a Ca2+ influx assay by measuring the effect on capsaicin (0.05 uM) evoked increase in intracellular Ca2+ levels using cells stably expressing recombinant human TRPV1. All compounds were tested over an 11-point half-log concentration range. The fluorescent Ca2+ chelating dye fluo-4 was used as an indicator of the relative levels of Ca2+ in a 96-well format using a fluorescence imaging plate reader. Fluorescence readings were made at 1-5 s intervals over the 240 s course of the experimental run. The peak increase in relative fluorescence units was calculated and expressed as a percentage of the 0.05 uM capsaicin (control) response. Curve fits of the data were solved using a four-parameter logistic Hill equation in GraphPad Prism, and IC50 values were calculated.

[2] = biological target: Transient receptor potential cation channel subfamily V member 1 (Homo sapiens, UniProt Q8NER1); test: as above; details: pH 7.4; 22 °C
Transient receptor potential cation channel subfamily V member 1 (Homo sapiens, UniProt Q8NER1), sequence (Q8NER1 whole entry): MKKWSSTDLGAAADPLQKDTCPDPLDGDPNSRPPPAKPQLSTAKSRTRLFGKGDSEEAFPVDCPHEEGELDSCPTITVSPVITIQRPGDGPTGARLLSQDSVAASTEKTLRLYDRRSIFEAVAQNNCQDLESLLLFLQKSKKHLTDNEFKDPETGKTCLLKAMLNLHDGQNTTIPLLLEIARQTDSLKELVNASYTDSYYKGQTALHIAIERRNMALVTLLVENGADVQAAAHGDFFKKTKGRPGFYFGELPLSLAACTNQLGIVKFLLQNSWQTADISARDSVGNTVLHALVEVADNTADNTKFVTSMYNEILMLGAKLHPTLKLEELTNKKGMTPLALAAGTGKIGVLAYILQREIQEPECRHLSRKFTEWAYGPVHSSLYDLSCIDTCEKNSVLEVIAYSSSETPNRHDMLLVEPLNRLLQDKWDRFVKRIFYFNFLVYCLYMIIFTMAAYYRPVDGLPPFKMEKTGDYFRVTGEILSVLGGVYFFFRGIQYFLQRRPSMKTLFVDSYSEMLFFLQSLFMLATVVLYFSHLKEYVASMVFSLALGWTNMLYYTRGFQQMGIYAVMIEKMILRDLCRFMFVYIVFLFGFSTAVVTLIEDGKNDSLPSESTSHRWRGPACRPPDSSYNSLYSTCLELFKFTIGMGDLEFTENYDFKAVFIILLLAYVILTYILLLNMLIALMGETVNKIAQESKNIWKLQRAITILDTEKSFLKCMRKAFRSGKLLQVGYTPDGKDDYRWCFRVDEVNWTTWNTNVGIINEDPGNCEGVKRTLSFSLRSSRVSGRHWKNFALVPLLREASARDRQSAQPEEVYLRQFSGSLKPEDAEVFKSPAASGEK
Procedure: as §1

Transient receptor potential cation channel subfamily V member 1 (Rattus norvegicus, UniProt O35433), sequence (O35433 whole entry): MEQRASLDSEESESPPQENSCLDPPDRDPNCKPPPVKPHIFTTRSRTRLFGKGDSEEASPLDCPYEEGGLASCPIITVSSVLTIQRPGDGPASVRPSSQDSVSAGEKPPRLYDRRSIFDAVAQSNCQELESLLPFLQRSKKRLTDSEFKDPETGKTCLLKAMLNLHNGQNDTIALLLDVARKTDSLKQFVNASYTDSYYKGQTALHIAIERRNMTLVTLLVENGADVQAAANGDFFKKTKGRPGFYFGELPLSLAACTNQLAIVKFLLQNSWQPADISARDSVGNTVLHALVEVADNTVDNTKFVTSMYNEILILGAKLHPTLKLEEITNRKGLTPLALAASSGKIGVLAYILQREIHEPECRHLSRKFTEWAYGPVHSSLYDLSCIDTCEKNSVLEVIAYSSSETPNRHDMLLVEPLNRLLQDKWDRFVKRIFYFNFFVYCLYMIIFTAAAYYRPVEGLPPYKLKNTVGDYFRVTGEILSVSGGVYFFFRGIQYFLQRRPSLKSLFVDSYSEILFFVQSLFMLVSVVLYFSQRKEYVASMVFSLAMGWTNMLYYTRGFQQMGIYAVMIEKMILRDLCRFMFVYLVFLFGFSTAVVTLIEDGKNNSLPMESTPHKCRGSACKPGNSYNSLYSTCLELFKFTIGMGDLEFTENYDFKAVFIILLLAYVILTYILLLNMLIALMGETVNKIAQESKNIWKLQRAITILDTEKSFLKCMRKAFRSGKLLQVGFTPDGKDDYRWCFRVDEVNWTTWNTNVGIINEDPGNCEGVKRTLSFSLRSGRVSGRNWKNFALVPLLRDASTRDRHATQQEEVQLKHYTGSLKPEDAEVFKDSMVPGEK

Compound | EC50 [1] | EC50 [2]
O=C(NCc1ccc(C(F)(F)F)cc1)Nc1cccc2cnccc12 [1-isoquinolin-5-yl-3-{[4-(trifluoromethyl)phenyl]methyl}urea] | 0.024 µM | 0.004 µM
O=C(NCCc1cccc(C(F)(F)F)c1)Nc1cccc2cnccc12 | – | 0.02 µM
O=C(NCc1cccc(C(F)(F)F)c1)Nc1cccc2cnccc12 [3-isoquinolin-5-yl-1-{[3-(trifluoromethyl)phenyl]methyl}urea] | – | 0.051 µM
O=C(NCCc1ccc(C(F)(F)F)cc1)Nc1cccc2cnccc12 | – | 0.019 µM
CSc1cccc(NC(=O)Nc2cccc3ccc(O)cc23)c1 [3-(7-hydroxynaphthalen-1-yl)-1-[3-(methylsulfanyl)phenyl]urea] | – | 0.022 µM
